Here are results for seven compounds from patent publication US9187467B2, “2-phenyl benzothiazole linked imidazole compounds as potential anticancer agents and process for the preparation thereof” (Council of Scientific and Industrial Research, priority 2012, dated 2015).

Assay [1] deals with CAKI-1. The assay is described as follows: SRB anticancer assay, renal. It counts as cell-based, human. Set-up: Log10GI50: unit not given here. Particulars: for Log10GI50: CAKI-1, present compounds; for GI50: Homo sapiens, CAKI-1, 48 h. On the technique in general: In SRB staining, fixed cells bind dye roughly in proportion to their protein.
Assay [2] deals with MDA-MB-435. Nature of the assay: SRB anticancer assay, melanoma. Format: cell-based, human. Set-up: Log10GI50: unit not given here. As to conditions: for GI50: Homo sapiens, MDA-MB-435, 48 h; for Log10GI50: MDA-MB-435, present compounds.
The test system of assay [3] is SW-620. The assay is described as follows: SRB anticancer assay, colon. It counts as cell-based, human. Also noted: Log10GI50: unit not given here. Particulars: for GI50: Homo sapiens, SW-620, 48 h; for Log10GI50: SW-620, present compounds.
The subject of assay [4] is M14. Nature of the assay: SRB anticancer assay, melanoma. It counts as cell-based, human. Also noted: Log10GI50: unit not given here. As to conditions: for GI50: Homo sapiens, M14, 48 h; for Log10GI50: M14, present compounds.
Assay [5] concerns EKVX. The assay is described as follows: SRB anticancer assay, non-small lung. It counts as cell-based, human. Set-up: Log10GI50: unit not given here. As to conditions: for GI50: Homo sapiens, 48 h; for Log10GI50: present compounds.
Assay [6] deals with HCT-15. Nature of the assay: SRB anticancer assay, colon. As to conditions: Homo sapiens, HCT-15, 48 h. It counts as cell-based, human.
The subject of assay [7] is MOLT-4. Nature of the assay: SRB anticancer assay, leukemia. It counts as cell-based, human. Set-up: Log10GI50: unit not given here. As to conditions: for GI50: Homo sapiens, MOLT-4, 48 h; for Log10GI50: MOLT, present compounds.
Assay [8] has as its system CCRF-CEM. Nature of the assay: SRB anticancer assay, leukemia. It counts as cell-based, human. Also noted: Log10GI50: unit not given here. Particulars: for GI50: Homo sapiens, 48 h; for Log10GI50: present compounds.
The test system of assay [9] is sixty human cancer cell lines. The assay is described as follows: SRB anticancer assay, all cell lines. It counts as cell-based. Particulars: all the cell lines; exposure at least 48 h.
In assay [10] the test system is HOP-92. The assay is described as follows: SRB anticancer assay, non-small lung. Format: cell-based, human. Also noted: Log10GI50: unit not given here. As to conditions: for Log10GI50: HOP-92, present compounds; for GI50: Homo sapiens, HOP-92, 48 h.
Assay [11] relates to p21. The assay is described as follows: Western blot, apoptosis proteins in MCF-7 cells. It counts as cell-based. Particulars: 2 μM, 24h. How it is done:
(§1) FIG. 3 represents effect of compound 7d and 7h on p21 and caspase-9. MCF-7 cells were treated with 2 μM concentration of compounds 7d and 7h for 24h. The cell lysates were collected and probed with anti-bodies against p21 and caspase-9. beta-actin was used as loading control. Con: Control (untreated).
(§2) Activation of tumor suppressor gene p21 was the important regulator of apoptotic pathway caused by various stimuli. In many instances the apoptotic cell death is mediated by caspases, thus the possible involvement of p21 and caspase protein and its role in apoptosis has been investigated. MCF-7 cells were treated with 7d, 7h (the effective compounds of cell cycle arrest) 21a, 21d and CA-4 at 2 μM concentration.
(In western blotting, separated proteins are transferred to a membrane and probed.)

Assay [12] concerns caspase-9. Nature of the assay: Western blot, apoptosis proteins in MCF-7 cells. It counts as cell-based. As to conditions: 2 μM, 24h. How it is done: as §1, §2
Assay [13] concerns HOP-62. Nature of the assay: SRB anticancer assay, non-small lung. It counts as cell-based, human. As to conditions: for Log10GI50: HOP-62, present compounds; for GI50: Homo sapiens, HOP-62, 48 h.
Assay [14] relates to RPMI-8226. Nature of the assay: SRB anticancer assay, leukemia. Format: cell-based. As to conditions: Homo sapiens, RPMI-8226, 48 h.
For assay [15], the system named is HCC-2998. The assay is described as follows: SRB anticancer assay, colon. Particulars: Homo sapiens; HCC-2998, 48 h. Format: cell-based, human.
The test system of assay [16] is microtubule network of MCF-7 cells. Nature of the assay: Effect on microtubule network. As to conditions: 2 μM. It counts as cell-based. The procedure: FIG. 2 represents effect of compound 7d, the effective compound on the microtubule network of MCF-7 cells untreated cells (Con), nocodazole (Noc) and 7d at 2 μM concentration. Microtubules and unassembled tubulin are shown in green and DNA was stained with nuclear dye DAPI (4,6-diamidino-2-phenylindole) is shown in blue colour.
Inhibition of tubulin is associated with G2/M cell cycle arrest by interrupting chromosome segregation and affecting mitotic spindle formation. […] It was considered of interest to understand the mechanism of anti-cancer activity of compound 7d with regard to interaction with microtubule system. MCF-7 breast cancer cells were treated with Nocodazole (Noc), 7d compounds at 2 μM concentration.

Broadly, the GI50 is the concentration at which growth is held to half of that of the control. Take `COc1ccc(-c2cncn2-c2ccc(-c3nc4cc(OC)c(OC)c(OC)c4s3)cc2)cc1N` [Compound 7j, 2-Methoxy-5-(1-(4-(5,6,7-trimethoxybenzo[d]thiazol-2-yl)phenyl)-1H-imidazol-5-yl)benzeneamine]: the Log10GI50 in assay [1] is given as −5.32; in assay [2], −5.50; in assay [3] it was −5.21; in assay [4], −5.23; in assay [5], −5.12; in [7], −5.40. This compound also returned a Log10GI50 in [8] of −5.47. For the same compound, the 50% growth inhibitory concentration (GI50) came to 4.82 µM in assay [1]; 3.13 µM in assay [2]; 6.21 µM in [3]; 5.91 µM in assay [4]; 7.54 µM in assay [5]; 4.02 µM in assay [6]. In addition, the figures for the concentration for 50% growth inhibition (GI50) in assay [7] and in [8] were 4 µM and 3.41 µM, respectively. Moreover, the “mean graph midpoint values (MG_MID) of log10LC50, range” value in [9] is −4.00.
As for `COc1cc2nc(-c3ccc(-n4cncc4-c4ccc(N)cc4)cc3)sc2c(OC)c1OC` [Compound 7h, 4-(1-(4-(5,6,7-Trimethoxybenzo[d]thiazol-2-yl)phenyl)-1H-imidazol-5-yl)benzenamine], the Log10GI50 in [1] is given as −5.85; in [10], −6.35; in assay [4], −5.68; in assay [5] it was −5.60. In addition, the GI50 came out at 1.41 µM in [1], 0.446 µM in assay [10], 2.1 µM in assay [4] and 2.49 µM in assay [5]. For the same compound, the “p21 protein (Western blot)” value in assay [11] was “increase”. Also, the “caspase-9 protein (Western blot)” value in [12] is recorded as “increase”.
Regarding `COc1cc(-c2cncn2-c2ccc(-c3nc4ccc(F)cc4s3)cc2)ccc1F` [Compound 4c, 6-Fluoro-2-(4-(5-(4-fluoro-3-methoxyphenyl)-1H-imidazol-1-yl)phenyl)benzo[d]thiazole], the GI50 was over 100 µM in assay [1]; 17.1 µM in assay [2]; 7.81 µM in assay [3]; 5.47 µM in [10]; 33.4 µM in assay [4]; 82.3 µM in assay [6]. The GI50 in assay [13] was 40.7 µM; in assay [7], 3.41 µM; in [14], 4.11 µM; in assay [8], 6.92 µM; in [15], over 100 µM. The Log10GI50 is listed as −4.77 in [2]; −5.11 in assay [3]; −5.26 in assay [10]; −4.48 in assay [4]; −4.39 log10 M in assay [13]; −5.47 in assay [7]. The Log10GI50 in [8] is on record as −5.16.
Consider `COc1cc(OC)cc(-c2cncn2-c2ccc(-c3nc4cc(OC)cc(OC)c4s3)cc2)c1` [Compound 6d, 2-(4-(5-(3,5-Dimethoxyphenyl)-1H-imidazol-1-yl)phenyl)-5,7-dimethoxybenzo[d]thiazole], for which the GI50 in assay [1] was 2.13 µM; in assay [2], 1.53 µM; in [13], 6.65 µM; in [15] it was over 100 µM. Also, the “mean graph midpoint values (MG_MID) of log10LC50, range” value in [9] is recorded as −4.00.
As to `COc1cc(OC)cc(-c2cncn2-c2ccc(-c3nc4cc(OC)c(OC)c(OC)c4s3)cc2)c1` [Compound 7d, 2-(4-(5-(3,5-Dimethoxyphenyl)-1H-imidazol-1-yl)phenyl)-5,6,7-trimethoxybenzo[d]thiazole], the Log10GI50 is on record as −5.42 in assay [1]; −5.22 in assay [2]; −4.86 in [3]; over −4.0 in assay [10]; −5.73 in assay [5]; −4.58 log10 M in assay [13]. Moreover, the Log10GI50 in [7] is −5.39. Further, the GI50 was 3.79 µM in assay [1]; 6.07 µM in [2]; 13.7 µM in assay [3]; over 100 µM in assay [10]; 1.87 µM in assay [5]; 5.72 µM in [6]. For the same compound, the GI50 in assay [13] was 26.4 µM; in assay [7], 4.11 µM; in assay [14], 2.9 µM; in assay [15], over 100 µM. For the same compound, the microtubulin organization result in [16] is given as “disrupted microtubulin organization”. In addition, in assay [11], the “p21 protein (Western blot)” value is reported as “increase”. In assay [12], the “caspase-9 protein (Western blot)” value was “increase”.
Consider `COc1cc(OC)c2sc(-c3ccc(-n4cncc4-c4ccc(OC)c(OC)c4)cc3)nc2c1` [Compound 6e, 2-(4-(5-(3,4-Dimethoxyphenyl)-1H-imidazol-1-yl)phenyl)-5,7-dimethoxybenzo[d]thiazole], for which the GI50 in assay [3] is over 100 µM; in assay [4] it was over 100 µM; in [6] it was over 100 µM; in assay [13] it was 35.5 µM; in assay [14] it was over 100 µM; in assay [8], over 100 µM. In [15], this compound registered a GI50 of over 100 µM. Moreover, the “mean graph midpoint values (MG_MID) of log10LC50, range” value in assay [9] is −4.00.
Consider `COc1cc(OC)c2sc(-c3ccc(-n4cncc4-c4cc(OC)c(OC)c(OC)c4)cc3)nc2c1` [Compound 6f, 5,7-Dimethoxy-2-(4-(5-(3,4,5-trimethoxyphenyl)-1H-imidazol-1-yl)phenyl)benzo[d]thiazole], for which the GI50 in [2] stood at 3.41 µM; in [3], 5.96 µM; in [4], 7.91 µM; in assay [5], 5.09 µM; in assay [6] it was 5.48 µM; in assay [13] it was 75.9 µM. Besides, the GI50 in assay [7] was 4.24 µM; in assay [14], 5.39 µM; in assay [8], 3.95 µM; in [15], over 100 µM. The “mean graph midpoint values (MG_MID) of log10LC50, range” value in assay [9] is given as −4.00. The “mean graph midpoint values (MG_MID) of log10TGI, range” value in assay [9] is on record as −4.00.
